Assay results as given in article PMC8508980, “Design, Synthesis and Anticancer Profile of New 4-(1H-benzo[d]imidazol-1-yl)pyrimidin-2-amine-Linked Sulfonamide Derivatives with V600EBRAF Inhibitory Effect” (International Journal of Molecular Sciences, 2021).

How the values were obtained:
[1] = test system: leukemia cell lines; test: NCI 60 screen, sub-panel mean; assay type: cell-based, human; conditions: NCI-60, leukemia sub-panel
Protocol: (§1) Anticancer profiling over a panel of 60 cancer cell lines was carried out at the National Cancer Institute (NCI), Bethesda, Maryland, USA, https://dtp.cancer.gov/discovery_development/nci-60/methodology.htm (Last visit 22 September 2021), using the standard procedure (detailed procedure is located in the Supplementary Information page 50 s).
(§2) NCI standard procedure for 60 cell lines assay
(§3) The human tumor cell lines of the cancer screening panel are grown in RPMI 1640 mediu m containing 5% fetal bovine serum and 2 mM L-glutamine. For a typical screening experiment, cells are inoculated into 96 well microtiter plates in 100 μL at plating densities ranging from 5,000 to 40,000 cells/well depending on the doubling time of individual cell lines. After cell inoculation, the microtiter plates are incubated at 37° C, 5 % CO2, 95 % air and 100 % relative humidity for 24 h prior to addition of experimental drugs.
(§4) After 24 h, two plates of each cell line are fixed in situ with TCA, to represent a measurement of the cell population for each cell line at the time of drug addition (Tz). Experimental drugs are solubilized in dimethyl sulfoxide at 400-fold the desired final maximum test concentration (10 µM) and stored frozen prior to use. At the time of drug addition, an aliquot of frozen concentrate is thawed and diluted to twice the desired final maximum test concentration with co mp lete medium containing 50 μg/ml gentamicin. Additional four, 10-fold or ½ log serial dilutions are made to provide a total of five drug concentrations plus control. Aliquots of 100 μl of these different drug dilutions are added to the appropriate microtiter wells already containing 100 μl of medium, resulting in the required final drug concentrations.
(§5) Following drug addition, the plates are incubated for an additional 48 h at 37°C, 5 % CO2, 95 % air, and 100 % relative humidity. For adherent cells, the assay is terminated by the addition of cold TCA. Cells are fixed in situ by the gentle addition of 50 μl of cold 50 % (w/v) TCA (final concentration, 10 % TCA) and incubated for 60 minutes at 4°C. The supernatant is discarded, and the plates are washed five times with tap water and air dried. Sulforhodamine B (SRB) solution (100 μl) at 0.4 % (w/v) in 1 % acetic acid is added to each well, and plates are incubated for 10 minutes at room temperature. After staining, unbound dye is removed by washing five times with 1 % acetic acid and the plates are air dried. Bound stain is subsequently solubilized with 10 mM trizma base, and the absorbance is read on an automated plate reader at a wavelength of 515 nm. For suspension cells, the methodology is the same except that the assay is terminated by fixing settled cells at the bottom of the wells by g ently adding 50 μl of 80 % TCA (final concentration, 16 % TCA). Using the seven absorbance measurements [time zero, (Tz), control growth, (C), and test growth in the presence of drug at the five concentration levels (Ti)], the percentage growth is calculated at each of the drug concentrations levels. Percentage growth inhibition is calculated as:
(§6) [(Ti-Tz)/(C-Tz)] x 100 for concentrations for which Ti>/=Tz
(§7) [(Ti-Tz)/Tz] x 100 for concentrations for which Ti<Tz.
(§8) Three dose response parameters are calculated for each experimental agent. Growth inhibition of […]
(§9) resulting in a 50% reduction in the net protein increase (as measured by SRB staining) in control cells during the drug incubation. The drug concentration resulting in total growth inhibition […]
(§10) (TGI) is calculated from Ti = Tz.

[2] = test system: non-small cell lung cancer cell lines; test: NCI 60 screen, sub-panel mean; assay type: cell-based, human; conditions: NCI-60, non-small cell lung cancer sub-panel
Protocol: as §1, §2, §3, §4, §5, §6, §7, §8, §9, §10

[3] = test system: A549/ATCC; test: NCI 60 cell line screen; assay type: cell-based; conditions: Homo sapiens, Non-Small Cell Lung Cancer, read-out: Percent growth
In short: (§11)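 Five-dose sulforhodamine B growth assay: 48 h treatment (top concentration 10 µM) following 24 h plating, with protein mass quantified at 515 nm. GI50 reflects 50% reduction of net protein increase over control; TGI is the concentration giving no net growth.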

[4] = test system: HOP-62; test: NCI 60 cell line screen; assay type: cell-based; conditions: Homo sapiens; HOP-62, Non-Small Cell Lung Cancer; read-out: Percent growth
In short: (§12)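 Read-out was SRB staining of TCA-fixed cells at 515 nm, with growth computed against time-zero (Tz) and untreated control plates; TGI was taken where Ti = Tz. Drugs were tested at five concentrations up to 10 µM for 48 h at 37 °C, added 24 h after plating in RPMI 1640/5% FBS.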

[5] = test system: 786-0; test: NCI 60 cell line screen; assay type: cell-based; conditions: Homo sapiens; 786-0, Renal Cancer; read-out: Percent growth
In short: as §11

[6] = test system: LOX IMVI; test: NCI 60 cell line screen; assay type: cell-based; conditions: Homo sapiens, Melanoma, read-out: Percent growth
In short: as §12

[7] = test system: ACHN; test: NCI 60 cell line screen; assay type: cell-based; conditions: Homo sapiens, Renal Cancer, read-out: Percent growth
In short: as §11

[8] = test system: OVCAR-5; test: NCI 60 cell line screen; assay type: cell-based; conditions: Homo sapiens; OVCAR-5, Ovarian Cancer; read-out: Percent growth
In short: as §11

[9] = test system: NCI-H322M; test: NCI 60 cell line screen; assay type: cell-based; conditions: Homo sapiens, Non-Small Cell Lung Cancer, read-out: Percent growth
In short: as §11

[10] = test system: MALME-3M; test: NCI 60 cell line screen; assay type: cell-based; conditions: Homo sapiens, Melanoma, read-out: Percent growth
In short: as §11

[11] = test system: HCC-2998; test: NCI 60 cell line screen; assay type: cell-based; conditions: Homo sapiens; HCC-2998, Colon Cancer; read-out: Percent growth
In short: as §11

[12] = test system: SF-539; test: NCI 60 cell line screen; assay type: cell-based; conditions: Homo sapiens; SF-539, CNS-Cancer; read-out: Percent growth
In short: as §11

[13] = test system: SF-268; test: NCI 60 cell line screen; assay type: cell-based; conditions: Homo sapiens; SF-268, CNS-Cancer; read-out: Percent growth
In short: as §11

[14] = test system: MDA-MB-231/ATCC; test: NCI 60 cell line screen; assay type: cell-based; conditions: Homo sapiens, Breast Cancer, read-out: Percent growth
In short: as §11

[15] = test system: MCF7; test: NCI 60 cell line screen; assay type: cell-based; conditions: Homo sapiens; MCF7, Breast Cancer; read-out: Percent growth
In short: as §11

[16] = test system: MDA-MB-435; test: NCI 60 cell line screen; assay type: cell-based; conditions: Homo sapiens; MDA-MB-435, Melanoma; read-out: Percent growth
In short: as §11

[17] = test system: SK-MEL-28; test: NCI 60 cell line screen; assay type: cell-based; conditions: Homo sapiens; SK-MEL-28, Melanoma; read-out: Percent growth
In short: as §11

[18] = test system: HS 578T; test: NCI 60 cell line screen; assay type: cell-based; conditions: Homo sapiens, Breast Cancer, read-out: Percent growth
In short: as §11

[19] = test system: IGROV1; test: NCI 60 cell line screen; assay type: cell-based; conditions: Homo sapiens, IGROV-1; IGROV1, Ovarian Cancer; read-out: Percent growth
In short: as §11

[20] = test system: HL-60(TB); test: NCI 60 cell line screen; assay type: cell-based; conditions: Homo sapiens, Leukemia, read-out: Percent growth
In short: as §12

[21] = test system: UACC-62; test: NCI 60 cell line screen; assay type: cell-based; conditions: Homo sapiens; UACC-62, Melanoma; read-out: Percent growth
In short: as §12

[22] = test system: TK-10; test: NCI 60 cell line screen; assay type: cell-based; conditions: Homo sapiens; TK-10, Renal Cancer; read-out: Percent growth
In short: as §11

[23] = test system: HCT-116; test: NCI 60 cell line screen; assay type: cell-based; conditions: Homo sapiens; HCT-116, Colon Cancer; read-out: Percent growth
In short: as §11

SMILES | activity at 10 µM [3] [%] | activity at 10 µM [4] [%] | activity at 10 µM [5] [%] | activity at 10 µM [6] [%] | activity at 10 µM [7] [%] | activity at 10 µM [8] [%] | activity at 10 µM [9] [%] | activity at 10 µM [10] [%] | activity at 10 µM [11] [%] | activity at 10 µM [12] [%] | activity at 10 µM [13] [%] | activity at 10 µM [14] [%] | activity at 10 µM [15] [%] | activity at 10 µM [16] [%] | activity at 10 µM [17] [%] | activity at 10 µM [18] [%] | activity at 10 µM [19] [%] | activity at 10 µM [20] [%] | activity at 10 µM [21] [%] | activity at 10 µM [22] [%] | further results
O=S(=O)(NCCNc1nccc(-n2cnc3ccccc32)n1)c1ccc(C(F)(F)F)cc1 [12e, N-(2-((4-(1H-benzo [d]imidazol-1-yl)pyrimidin-2-yl)amino)ethyl)-4-(trifluoromethyl)benzenesulfonamide] | 55.4 | 66.1 | 69.7 | 57.4 | 60.8 | 86.2 | 85.3 | 71.4 | 80.5 | 64.8 | 59.5 | 64 | 34.9 | 64.4 | 77.2 | 42.9 | 66.4 | 73.8 | 42.4 | 63.4 | mean percent inhibition [1]: 60%; mean percent inhibition [2]: 50%; activity at 10 µM [23]: 40.1%
Cc1ccc(S(=O)(=O)NCCNc2nccc(-n3cnc4ccccc43)n2)cc1 [12g, N-(2-((4-(1H-benzo [d]imidazol-1-yl)pyrimidin-2-yl)amino)ethyl)-4-methyl benzenesulfonamide] | 82.4 | 69.6 | 85.4 | 75.2 | 73 | 87.8 | 94.4 | 90.2 | 93.1 | 79.7 | 68.8 | 62.5 | 67.9 | 84.1 | 94.4 | 64.2 | 75.2 | 91.2 | 53 | 83.7 | mean percent inhibition [2]: 30%; activity at 10 µM [23]: 64.1%
O=S(=O)(NCCCNc1nccc(-n2cnc3ccccc32)n1)c1ccc(F)cc1 [12i, N-(3-((4-(1H-benzo [d]imidazol-1-yl)pyrimidin-2-yl)amino)propyl)-4-fluorobenzenesulfonamide] | 88.8 | 82.7 | 97.7 | 74 | 81.2 | 98.6 | 99.5 | 86.1 | 102 | 86.2 | 86.3 | 74.4 | 63.7 | 64.6 | 97.9 | 82.4 | 91.8 | 90.9 | 61.6 | 91.9 | mean percent inhibition [1]: 50%; activity at 10 µM [23]: 58.7%
O=S(=O)(NCCCNc1nccc(-n2cnc3ccccc32)n1)c1ccc(C(F)(F)F)cc1 [12l, N-(3-((4-(1H-benzo [d]imidazol-1-yl)pyrimidin-2-yl)amino)propyl)-4-(trifluoromethyl) benzenesulfonamide] | 79 | 77.3 | 77.2 | 72.3 | 79 | 87.2 | 89.9 | 94 | 84.8 | 74.5 | 66.5 | 68.7 | 65.5 | 72.1 | 103 | 58.6 | 74.3 | 89 | 64.1 | 81.5 | mean percent inhibition [1]: 46%; mean percent inhibition [2]: 30%; activity at 10 µM [23]: 65.6%
